Results: US11261201B2 (priority 2018, dated 2022)
≈ marks a conversion by molar mass, not a printed value. Where a name gives a salt, the structure may show the parent alone. Read-outs that look alike come from different tables or passages of the source.

Key:
[1] = test system: A. baumannii; test: Gram negative MIC protocol (OD600, LB, 24 h); conditions: for MIC: Acinetobacter baumannii
Description: (§1) Overnight bacterial cultures were grown in LB with no added antibiotics at 37° C. with shaking. A 1:1000 dilution of these cultures into LB was exposed to concentration gradients of compounds in 96-well plates (100 μL per well assay volume). Resulting plates were incubated at 37° C. for 24 h without shaking, and OD600 was measured at the end of the incubation. MICs were determined as the lowest concentrations at which OD600 remained at baseline.

[2] = test system: H37RvMA; test: Tuberculosis Alamar Blue/Resazurin assay (MIC); type: cell-based; conditions: read-out: WT H37Rv MTB Activity
[3] = test system: E. coli; test: Gram negative MIC protocol (OD600, LB, 24 h); conditions: for MIC: Escherichia coli
Description: as §1

[4] = read-out: MIC A. baumannii LB Media, A. baumannii, LB media, 24 h, OD600
[5] = Mycobacterium tuberculosis, H37RV
[6] = read-out: MIC E. coli delta-TolC LB Media, E. coli delta-TolC, LB media, OD600
[7] = read-out: MIC WT E. coli LB Media, WT E. coli, LB media, OD600
[8] = Mycobacterium tuberculosis, H37RV, WT H37Rv MTB
[9] = read-out: MIC E. coli delta-TolC LB Media, E. coli delta-TolC strain, LB media, 24 h, OD600
[10] = read-out: MIC WT E. coli LB Media, wild-type E. coli, LB media, 24 h, OD600
[11] = read-out: MIC A. baumannii LB Media

| SMILES | MIC [1, 4] | MIC [3, 6] | MIC [3, 7] | MIC [2, 8] | MIC [3, 9] | MIC [3, 10] | also measured |
| --- | --- | --- | --- | --- | --- | --- | --- |
| C1=C(CCNCc2cccnc2)CCCC1 [B4] | > 150 µM | > 150 µM | > 150 µM | – | – | – | MIC [2, 5]: > 150 µM |
| Cc1noc(C)c1CC(C)NCc1ccccc1 (stereo not shown) [B26] | > 150 µM | > 150 µM | > 150 µM | – | – | – | MIC [2, 5]: > 150 µM |
| CC(CC1CCCCC1)NCc1ccccc1OCC1CCCO1 (stereo not shown) [B297] | 150 µM (≈ 49.7 µg/mL) | – | – | > 150 µM | 7 µM (≈ 2.32 µg/mL) | > 150 µM | – |
| COCCOc1ccccc1CNC(C)CC1CCCCC1 (stereo not shown) [B294] | > 150 µM | – | – | > 150 µM | 7 µM (≈ 2.14 µg/mL) | > 150 µM | – |
| c1ccc(CNC(CC2CCCCC2)c2ccccc2)cc1 (stereo not shown) [B169, N-benzyl-2-cyclohexyl-1-phenylethanamine hydrochloride] | > 300 µM | 74 µM | > 300 µM | > 150 µM | – | – | – |
| CC(CC1CCCCC1)NCc1ccccc1OCCC(N)=O (stereo not shown) [B285] | > 150 µM | – | – | > 150 µM | 55 µM (≈ 17.5 µg/mL) | 91 µM (≈ 29 µg/mL) | – |
| CC(CC1CCCCC1)NCc1ccccc1OCCCN(C)C1CCCC1 (stereo not shown) [B344] | 91 µM (≈ 35.2 µg/mL) | – | – | 150 µM (≈ 58 µg/mL) | 91 µM (≈ 35.2 µg/mL) | 150 µM (≈ 58 µg/mL) | – |
| O=C1Cc2ccccc2CN1C1CCCCC1 [B418, 2-cyclohexyl-1,4-dihydroisoquinolin-3(2H)-one] | > 150 µM | > 150 µM | > 150 µM | > 150 µM | – | – | – |
| c1ccc(CNCCN2CCCc3ccccc32)cc1 [B148] | > 150 µM | > 150 µM | > 150 µM | 150 µM (≈ 40 µg/mL) | – | – | – |
| O=C(O)c1ccccc1CNCCC1CCCCC1 [B257, 2-((2-cyclohexylethylamino)methyl)benzoic acid hydrochloride] | > 150 µM | – | – | > 150 µM | 67 µM | > 150 µM | – |
| Fc1ccc(CNCCC2=CCCCC2)cc1F [B144] | > 150 µM | > 150 µM | > 150 µM | > 150 µM | – | – | – |
| CC(CC1CC=CCC1)NCc1ccccc1 (stereo not shown) [B157, N-benzyl-1-(cyclohex-3-enyl)propan-2-amine] | – | 11 µM (≈ 2.52 µg/mL) | 20 µM (≈ 4.59 µg/mL) | – | – | – | MIC [1, 11]: 55 µM (≈ 12.6 µg/mL); MIC [2, 5]: 91 µM (≈ 20.9 µg/mL) |
| c1cc(CNCCC2CCCCC2)c2sccc2c1 [B354] | > 150 µM | – | – | 150 µM (≈ 41 µg/mL) | 150 µM (≈ 41 µg/mL) | > 150 µM | – |
| COc1cccc(COc2ccccc2CNC(C)CC2CCCCC2)c1 (stereo not shown) [B459, 1-cyclohexyl-N-(2-((3-methoxybenzyl)oxy)benzyl)propan-2-amine] | 91 µM (≈ 33.4 µg/mL) | 2 µM (≈ 0.735 µg/mL) | 55 µM (≈ 20.2 µg/mL) | 17 µM (≈ 6.25 µg/mL) | – | – | – |
| c1cncc(-c2ccccc2CNCCC2CCCCC2)c1 [B231, 2-cyclohexyl-N-(2-(pyridin-3-yl)benzyl)ethanamine hydrochloride] | > 300 µM | – | – | > 150 µM | 54 µM | 300 µM | – |
| CC(CC1CCCCC1)NCc1ccccc1CS(N)(=O)=O (stereo not shown) [B414, (2-(((1-cyclohexylpropan-2-yl)amino)methyl)phenyl)methanesulfonamide] | 150 µM (≈ 48.7 µg/mL) | 4 µM (≈ 1.3 µg/mL) | 20 µM (≈ 6.49 µg/mL) | > 150 µM | – | – | – |
| CC1CCc2ccccc2N1CCNCc1ccccc1 (stereo not shown) [B145] | > 150 µM | > 150 µM | > 150 µM | 91 µM (≈ 25.5 µg/mL) | – | – | – |
| CC(CC1CCCCC1)NCc1ccccc1OCC(=O)NC1CC1 (stereo not shown) [B280] | 150 µM (≈ 51.7 µg/mL) | – | – | > 150 µM | 12 µM (≈ 4.13 µg/mL) | 150 µM (≈ 51.7 µg/mL) | – |
| FC1(F)Oc2ccc(CCNCc3ccccc3)cc2O1 [B120] | – | > 150 µM | > 150 µM | – | – | – | MIC [1, 11]: > 150 µM; MIC [2, 5]: > 150 µM |
| CCC(CC1CCCCC1)NCc1ccccc1 (stereo not shown) [B164, N-benzyl-1-cyclohexylbutan-2-amine] | > 150 µM | 60 µM (≈ 14.7 µg/mL) | > 300 µM | > 150 µM | – | – | – |

| SMILES | MIC [1, 4] | MIC [3, 6] | MIC [3, 7] | MIC [2, 8] | MIC [3, 9] | MIC [3, 10] | also measured |
| --- | --- | --- | --- | --- | --- | --- | --- |
| c1ccc(CNCC2CCCC2)cc1 [B141] | > 150 µM | > 150 µM | > 150 µM | > 150 µM | – | – | – |
| CC(C)(CNCc1ccccc1)C1=CCCCC1 [B72] | > 150 µM | > 150 µM | > 150 µM | > 150 µM | – | – | – |
| c1ccc(CNCCC2CC3CCC2O3)cc1 (stereo not shown) [B66] | > 150 µM | > 150 µM | > 150 µM | > 150 µM | – | – | – |
| CC1CCCN(C(=O)COc2ccccc2CNC(C)CC2CCCCC2)C1 (stereo not shown) [B273] | > 150 µM | – | – | 150 µM (≈ 58 µg/mL) | 4 µM (≈ 1.55 µg/mL) | > 150 µM | – |
| CCOCCOc1ccccc1CNC(C)CC1CCCCC1 (stereo not shown) [B313] | > 150 µM | – | – | > 150 µM | 7 µM (≈ 2.24 µg/mL) | > 150 µM | – |
| CC(Cc1ccc2ccccc2c1)NCc1ccccc1 (stereo not shown) [B106] | > 150 µM | > 150 µM | > 150 µM | – | – | – | MIC [2, 5]: 150 µM (≈ 41.3 µg/mL) |
| COc1cccc2c1B(O)OC2CNCc1ccccc1 (stereo not shown) [B220, 3-((benzylamino)methyl)-7-methoxybenzo[c][1,2]oxaborol-1(3H)-ol hydrochloride] | > 300 µM | – | – | > 150 µM | > 300 µM | > 300 µM | – |
| C1=C(CCNCc2ccccc2)c2ccccc2C1 [B27] | > 150 µM | > 150 µM | > 150 µM | 91 µM (≈ 22.7 µg/mL) | – | – | – |
| CC(C)(CC1CCCCCC1)NCc1ccccc1 [B92] | > 150 µM | > 150 µM | > 150 µM | > 150 µM | – | – | – |
| CC(CC1CCCCC1)N1Cc2ccccc2CC1=O (stereo not shown) [B412, 2-(1-cyclohexylpropan-2-yl)-1,4-dihydroisoquinolin-3(2H)-one] | > 150 µM | 55 µM (≈ 14.9 µg/mL) | > 150 µM | 7.4 µM (≈ 2.01 µg/mL) | – | – | – |
| FC1(F)CCC(CCNCc2ccccc2)CC1 [B212, N-benzyl-2-(4,4-difluorocyclohexyl)ethanamine hydrochloride] | > 300 µM | – | – | > 150 µM | > 300 µM | > 300 µM | – |
| C1=Nc2c(cccc2CCNCc2ccccc2)C1 [B48] | – | > 150 µM | > 150 µM | – | – | – | MIC [1, 11]: 150 µM (≈ 37.6 µg/mL); MIC [2, 5]: 150 µM (≈ 37.6 µg/mL) |
| CC(CC1CCCCC1)NCc1ccccc1OCCOCCO (stereo not shown) [B274] | 150 µM (≈ 50.3 µg/mL) | – | – | > 150 µM | 7 µM (≈ 2.35 µg/mL) | 150 µM (≈ 50.3 µg/mL) | – |
| c1ccc(CNCCN2CCCC3CCCCC32)cc1 (stereo not shown) [B124] | > 150 µM | > 150 µM | > 150 µM | > 150 µM | – | – | – |
| C1=C(CC2CCCN2Cc2ccccc2)CCCC1 (stereo not shown) [B161] | > 150 µM | > 300 µM | > 300 µM | > 150 µM | – | – | – |
| CCN(CC)CCOc1ccccc1CNC(C)CC1CCCCC1 (stereo not shown) [B249] | > 150 µM | – | – | > 150 µM | > 150 µM | > 150 µM | – |
| CC(CC1CCCCC1)NCc1ccccc1CS(=O)(=O)N[C@@H](C)C(=O)O (stereo partly drawn) [B454, ((2-(((1-cyclohexylpropan-2-yl)amino)methyl)benzyl)sulfonyl)-L-alanine] | > 150 µM | 91 µM (≈ 36.1 µg/mL) | > 150 µM | > 150 µM | – | – | – |
| CC(CC1CCCCC1)NCc1ccccc1OCCN1CCOCC1 (stereo not shown) [B250] | > 150 µM | – | – | > 150 µM | 12 µM (≈ 4.33 µg/mL) | > 150 µM | – |
| C1=C(CCNCc2ccncc2)CCCC1 [B15] | – | – | – | – | – | – | MIC A. baumannii LB Media ([1]; A. baumannii, LB media, OD600): >150 µM; MIC ([2]; WT H37Rv MTB): >150 µM; MIC E. coli delta-TolC LB Media ([3]; E. coli delta-TolC, LB media, OD600): >150 µM; MIC WT E. coli LB Media ([3]; WT E. coli, LB media, OD600): >150 µM |
| Brc1ccc(CC2(NCc3ccccc3)CC2)cc1 [B91] | > 150 µM | 90 µM (≈ 28.5 µg/mL) | > 150 µM | – | – | – | MIC [2, 5]: > 150 µM |
